Experimental findings from patent US20120252803A1, “COMPOSITION AND METHOD FOR CONTROLLING ARTHROPOD PESTS” (SUMITOMO CHEMICAL COMPANY, LIMITED, priority 2009, published 2012) are described below.

In assay [1] the test system is Common cutworm (Spodoptela litura). The experiment in a line: Test Example 1: pesticidal effect of artificial diet irrigation treatment on Common cutworm. The format is in vivo. The following applies: artificial diet irrigated with 2 mL test solution, fourth instar larvae, after 6 days.
The test system is the same in assay [2]. Nature of the assay: Test Example 2: pesticidal effect of artificial diet irrigation treatment on Common cutworm. The format is in vivo. The following applies: artificial diet irrigated with 2 mL test solution, fourth instar larvae, after 6 days.
Setting [3] is: composition of the compound and esfenvalerate, Table 43.
Setting [4] is: composition of the compound and fenpropathrin, Table 44.
Setting [5] is: composition of the compound and esfenvalerate, Table 45.
Where [6] appears, read: composition of the compound and fenpropathrin, Table 46.

Turning to `FC(F)(F)c1cnc2oc(-c3ccncc3Cl)nc2c1` [Compound 139, 2-(3-chloropyridin-4-yl)-6-(trifluoromethyl)oxazolo[5,4-b]pyridine], the “pesticidal efficacy against Common cutworm (Spodoptela litura)” value (“pesticidal efficacy” below) in assay [1] (setting [3]) and in assay [1] (setting [4]) was “high pesticidal efficacy” each time.
Consider `CCc1cnccc1-c1nc2cc(OC(F)(F)F)ccc2o1` [Compound 109, 2-(3-ethylpyridin-4-yl)-5-(trifluoromethoxy)benzoxazole], for which the “pesticidal efficacy” value in assay [1] (setting [3]) and in assay [1] (setting [4]) was “high pesticidal efficacy” in each case.
As for `CC(C)COc1cnccc1-c1nc2cc(C(F)(F)F)ccc2o1` [Compound 116, 2-(3-isobutoxypyridin-4-yl)-5-(trifluoromethyl)benzoxazole], the “pesticidal efficacy” value in assay [2] (setting [5]) and in assay [2] (setting [6]) was “high pesticidal efficacy” each time.
Regarding `FC(F)(F)COc1cnccc1-c1nc2cc(C(F)(F)F)cnc2o1` [Compound 163], the “pesticidal efficacy” value in assay [2] (setting [5]) and in assay [2] (setting [6]) was “high pesticidal efficacy” in each case.
Regarding `FC(F)(F)Sc1ccc2oc(-c3ccncc3Cl)nc2c1` [Compound 77, 2-(3-chloropyridin-4-yl)-5-(trifluoromethylthio)benzoxazole], the “pesticidal efficacy” value in assay [1] (setting [3]) and in assay [1] (setting [4]) was “high pesticidal efficacy” each time.
Turning to `CC(C)Oc1cnccc1-c1nc2cc(C(F)(F)F)ccc2o1` [Compound 70, 2-(3-isopropoxypyridin-4-yl)-5-(trifluoromethyl)benzoxazole], the “pesticidal efficacy” value in assay [1] (setting [3]) and in assay [1] (setting [4]) was “high pesticidal efficacy” in each case.
Consider `CC(C)(C)COc1cnccc1-c1nc2cc(C(F)(F)F)ccc2o1` [Compound 117, 2-[3-(2,2-dimethylpropoxy)pyridin-4-yl]-5-(trifluoromethyl)benzoxazole], for which the “pesticidal efficacy” value in assay [2] (setting [5]) and in assay [2] (setting [6]) was “high pesticidal efficacy” throughout.
Turning to `FC(F)(F)c1ccc2oc(-c3ccncc3Cl)nc2c1` [Compound 18, 2-(3-chloropyridin-4-yl)-5-(trifluoromethyl)benzoxazole], the “pesticidal efficacy” value in assay [1] (setting [3]) and in assay [1] (setting [4]) was “high pesticidal efficacy” in each case.
Regarding `CCc1cnccc1-c1nc2cc(C(F)(F)F)cnc2o1` [Compound 143, 2-(3-ethylpyridin-4-yl)-6-(trifluoromethyl)oxazolo[5,4-b]pyridine], the “pesticidal efficacy” value in assay [1] (setting [3]) and in assay [1] (setting [4]) was “high pesticidal efficacy” throughout.
As to `FC(F)(F)COc1cnccc1-c1nc2cc(C(F)(F)F)ccc2o1` [Compound 39, 2-[3-(2,2,2-trifluoroethyl)oxypyridin-4-yl]-5-(trifluoromethyl)benzoxazole], the “pesticidal efficacy” value in assay [2] (setting [5]) and in assay [2] (setting [6]) was “high pesticidal efficacy” each time.
As to `CSc1cnccc1-c1nc2cc(C(F)(F)F)cnc2o1` [Compound 146, 2-(3-methylthiopyridin-4-yl)-6-(trifluoromethyl)oxazolo[5,4-b]pyridine], the “pesticidal efficacy” value in assay [1] (setting [3]) and in assay [1] (setting [4]) was “high pesticidal efficacy” in each case.
Turning to `FC(F)(F)c1ccc2oc(-c3ccncc3-c3cccnc3)nc2c1` [Compound 128, 4-(5-trifluoromethyl-benzoxazole-2-yl)-[3,3′]bipyridinyl], the “pesticidal efficacy” value in assay [1] (setting [3]) and in assay [1] (setting [4]) was “high pesticidal efficacy” each time.
